According to US20030203966A1, “Nitromethylthiobenzene derivatives as aldose reductase inhihibitors” (priority 1996, published 2003):

Key:
aldose reductase = biological target: T1, aldose reductase (Rattus norvegicus, UniProt P07943); assay: In vitro study: inhibition of aldose reductase; format: biochemical, male Wistar rats (lenses); details: enzyme from rat lenses; NADPH, L-glyceraldehyde; spectrophotometry at 340 nm
T1 construct: The aldose reductase used is obtained from the lenses of male Wistar rats; from tissue; host or cells: lenses of male Wistar rats
Experimental: 1) In vitro study: inhibition of aldose reductase
The aldose reductase used is obtained from the lenses of male Wistar rats according to a modification of the method by S. Hayman et al. (Journal of Biological Chemistry 240, p. 877, 1965). The enzymatic extract is diluted in a phosphate buffer in the presence of NADPH and various concentrations of the test products. The reaction is triggered with L-glyceraldehyde and the rate of reaction is measured by monitoring the disappearance of the NADPH by spectrophotometry at 340 nm. The rate of reaction is calculated for each concentration of products, and the concentration required for a 50% reduction in the rate of reaction (IC50) is then evaluated by linear interpolation.

[1] = system: level of sorbitol in the sciatic nerves; assay: In vivo study: reduction of the accumulation of sorbitol; set-up: species or system male Wistar rats; details: Rattus norvegicus, po; 5 mg/kg/day p.o.; streptozotocin-diabetic rats; sciatic nerve sorbitol, relative to diabetic and non-diabetic animals; read-out: Protection against the increase in sorbitol (%) (5 mg/kg/day p.o.)
Experimental: 2) In vivo study: reduction of the accumulation of sorbitol
Male Wistar rats weighing from 200 to 250 g are made diabetic by intravenous injection of streptozotocin (60 mg/kg). They then receive an oral treatment of the test products, in the form of a suspension, 4 hours, 30 hours and 52 hours after the injection of streptozotocin. 18 hours after the final oral treatment, the rats are sacrificed and decapitated and their sciatic nerves are then removed. After extraction, the level of sorbitol in the nerves is measured, according to the enzymatic method described by H. J. Bergmeyer (Methods of enzymatic analysis, H. U. Bergmeyer ed., Academic Press New York 3, p. 1323, 1974). The percentage of protection is calculated for each product relative to the batch of diabetic animals, taking into account the level of sorbitol in the sciatic nerves of non-diabetic rats.

IC50 (aldose reductase) [nM] | melting point | SMILES | inhibition in vivo at 5 mg/kg [1] [%]
8 | 129 to 131 °C | Cc1cc(NS(=O)(=O)c2ccccc2)cc(C)c1S(=O)(=O)C[N+](=O)[O-] [Example 1] | 65
7 | 158 to 160 °C | Cc1cc(NS(=O)(=O)c2ccc(F)c(F)c2)cc(C)c1S(=O)(=O)C[N+](=O)[O-] [Example 10, 3,4-Difluoro-N-[3,5-dimethyl-4-[(nitromethyl)sulphonyl]phenyl]benzenesulphonamide] | 66
8 | 156 to 158 °C | Cc1cc(NS(=O)(=O)c2cccc(Br)c2)cc(C)c1S(=O)(=O)C[N+](=O)[O-] [Example 13, 3-Bromo-N-[3,5-dimethyl-4-[(nitromethyl)sulphonyl]-phenyl]benzenesulphonamide] | 70
7 | 171 to 173 °C | Cc1cc(NS(=O)(=O)c2ccccc2C(F)(F)F)cc(C)c1S(=O)(=O)C[N+](=O)[O-] [Example 14, N-[3,5-Dimethyl-4-[(nitromethyl)sulphonyl]phenyl]-2-(trifluoromethyl)benzenesulphonamide] | 70
8 | 152 to 154 °C | Cc1cc(NS(=O)(=O)c2ccc(F)cc2)cc(C)c1S(=O)(=O)C[N+](=O)[O-] [Example 24, N-[3,5-Dimethyl-4-[(nitromethyl)sulphonyl]phenyl]-4-fluorobenzenesulphonamide] | 80
7 | 135 to 137 °C | Cc1cc(NS(=O)(=O)c2cccc(F)c2)cc(C)c1S(=O)(=O)C[N+](=O)[O-] [Example 25, N-[3,5-Dimethyl-4-[(nitromethyl)sulphonyl]phenyl]-3-fluorobenzenesulphonamide] | 85
6 | 124 to 126 °C | Cc1cc(NS(=O)(=O)Cc2ccccc2)cc(C)c1S(=O)(=O)C[N+](=O)[O-] [Example 26, N-[3,5-Dimethyl-4-[(nitromethyl)sulphonyl]phenyl]-phenylmethanesulphonamide] | 104
7 | 166 to 168 °C | Cc1cc(NS(=O)(=O)c2cccc(F)c2F)cc(C)c1S(=O)(=O)C[N+](=O)[O-] [Example 29, 2,3-Difluoro-N-[3,5-dimethyl-4-[(nitromethyl)sulphonyl]phenyl]benzenesulphonamide] | 71
8 | 187 to 190 °C | Cc1cc(NS(=O)(=O)c2cc(F)cc(F)c2)cc(C)c1S(=O)(=O)C[N+](=O)[O-] [Example 30, 3,5-Difluoro-N-[3,5-dimethyl-4-[(nitromethyl)sulphonyl]phenyl]benzenesulphonamide] | 87
9 | 175 to 177 °C | Cc1cc(NS(=O)(=O)c2ccccc2F)cc(C)c1S(=O)(=O)C[N+](=O)[O-] [Example 34, N-[3,5-Dimethyl-4-[(nitromethyl)sulphonyl]phenyl]-2-fluorobenzenesulphonamide] | 69
 | 187 to 188 °C | Cc1cc(NS(=O)(=O)c2ccc(C(F)(F)F)cc2)cc(C)c1S(=O)(=O)C[N+](=O)[O-] [Example 35, N-[3,5-Dimethyl-4-[(nitromethyl)sulphonyl]phenyl]-4-(trifluoromethyl)benzenesulphonamide] | 
 | 180 to 182 °C | Cc1cc(NS(=O)(=O)c2ccc(OC(F)(F)F)cc2)cc(C)c1S(=O)(=O)C[N+](=O)[O-] [Example 36, N-[3,5-Dimethyl-4-[(nitromethyl)sulphonyl]phenyl]-4-(trifluoromethoxy)benzenesulphonamide] | 
 | 128 to 130 °C | Cc1cc(NS(=O)(=O)c2c(F)c(F)c(F)c(F)c2F)cc(C)c1S(=O)(=O)C[N+](=O)[O-] [Example 37, N-[3,5-Dimethyl-4-[(nitromethyl)sulphonyl]phenyl]-2,3,4,5,6-pentafluorobenzenesulphonamide] | 
 | 214 to 215 °C (dec.) | Cc1cc(NS(=O)(=O)c2ccc3oc4ccccc4c3c2)cc(C)c1S(=O)(=O)C[N+](=O)[O-] [Example 38, N-[3,5-Dimethyl-4-[(nitromethyl)sulphonyl]phenyl]-2-dibenzofuransulphonamide] | 
 | 206 to 208 °C (dec.) | Cc1cc(NS(=O)(=O)c2ccc(-c3ccccc3)cc2)cc(C)c1S(=O)(=O)C[N+](=O)[O-] [Example 39, N-[3,5-Dimethyl-4-[(nitromethyl)sulphonyl]phenyl]-4-biphenylsulphonamide] | 
 | 209 to 211 °C | CC(=O)Nc1ccc(S(=O)(=O)Nc2cc(C)c(S(=O)(=O)C[N+](=O)[O-])c(C)c2)cc1Cl [Example 43, N-[2-Chloro-4-[3,5-dimethyl-4-[(nitromethyl)sulphonyl]-phenylsulphamoyl]phenyl]acetamide] | 
 | 118 to 120 °C | Cc1ccccc1S(=O)(=O)Nc1cc(C)c(S(=O)(=O)C[N+](=O)[O-])c(C)c1 [Example 45, N-[3,5-Dimethyl-4-[(nitromethyl)sulphonyl]phenyl]-2-methylbenzenesulphonamide] | 
 | 166 to 168 °C | COc1cccc(S(=O)(=O)Nc2cc(C)c(S(=O)(=O)C[N+](=O)[O-])c(C)c2)c1 [Example 46, N-[3,5-Dimethyl-4-[(nitromethyl)sulphonyl]phenyl]-3-methoxybenzenesulphonamide] | 
 | 191 to 192 °C | Cc1cc(NS(=O)(=O)c2cccnc2)cc(C)c1S(=O)(=O)C[N+](=O)[O-] [Example 47, N-[3,5-Dimethyl-4-[(nitromethyl)sulphonyl]phenyl]-3-pyridinesulphonamide] | 
 | 146 to 148 °C | Cc1cc(NS(=O)(=O)Cc2ccccc2C(F)(F)F)cc(C)c1S(=O)(=O)C[N+](=O)[O-] [Example 48, N-[3,5-Dimethyl-4-[(nitromethyl)sulphonyl]phenyl]-(2-trifluoromethylphenyl)methanesulphonamide] | 
 | 108 to 110 °C | CC(=O)Nc1cccc(S(=O)(=O)Nc2cc(C)c(S(=O)(=O)C[N+](=O)[O-])c(C)c2)c1 [Example 50, N-[3[[3,5-Dimethyl-4-[(nitromethyl)sulphonyl]phenylamino]sulphonyl]phenyl]acetamide] | 
 | 167 to 169 °C | Cc1ccccc1CS(=O)(=O)Nc1cc(C)c(S(=O)(=O)C[N+](=O)[O-])c(C)c1 [Example 51, N-[3,5-Dimethyl-4-[(nitromethyl)sulphonyl]phenyl]-(2-methylphenyl)methanesulphonamide] | 
 | 152 to 154 °C | Cc1cc(NS(=O)(=O)Cc2ccc(Br)cc2F)cc(C)c1S(=O)(=O)C[N+](=O)[O-] [Example 52, 4-Bromo-N-[3,5-dimethyl-4-[(nitromethyl)sulphonyl]-phenyl]-(2-fluorophenyl)methanesulphonamide] | 
 | 126 to 128 °C | Cc1cc(NS(=O)(=O)CC2CCCCC2)cc(C)c1S(=O)(=O)C[N+](=O)[O-] [Example 53, N-[3,5-Dimethyl-4-[(nitromethyl)sulphonyl]phenyl]-cyclohexylmethanesulphonamide] | 
